Literature values in US7695734B2, “Extended release tablet formulation containing pramipexole or a pharmaceutically acceptable salt thereof” (Boehringer Ingelheim International GmbH, priority 2004, dated 2010).

Key:
[1] = light
dopamine D2 receptor = dopamine D2 receptor (Homo sapiens, UniProt P14416)
Sequence of dopamine D2 receptor (P14416 whole entry, species assumed): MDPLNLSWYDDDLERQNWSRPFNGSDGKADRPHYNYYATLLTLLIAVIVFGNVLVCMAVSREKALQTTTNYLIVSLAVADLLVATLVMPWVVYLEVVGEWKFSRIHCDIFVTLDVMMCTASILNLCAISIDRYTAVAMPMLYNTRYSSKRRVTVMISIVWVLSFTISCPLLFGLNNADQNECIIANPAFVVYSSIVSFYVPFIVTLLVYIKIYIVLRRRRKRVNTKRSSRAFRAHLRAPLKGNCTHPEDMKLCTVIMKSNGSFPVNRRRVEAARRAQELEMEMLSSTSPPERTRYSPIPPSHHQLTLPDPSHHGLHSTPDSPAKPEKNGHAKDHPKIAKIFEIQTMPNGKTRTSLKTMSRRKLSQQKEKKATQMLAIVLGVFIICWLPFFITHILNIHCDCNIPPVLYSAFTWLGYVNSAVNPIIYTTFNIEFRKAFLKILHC

stability in solution [1]: light sensitive
agonist activity (dopamine D2 receptor; dopamine D2 receptor): full agonist
SMILES: CCCN[C@H]1CCc2nc(N)sc2C1 [Pramipexole, (S)-2-amino-4,5,6,7-tetrahydro-6-(propylamino)benzothiazole]
receptor selectivity (dopamine D2 receptor; dopamine receptors): receptor selectivity for the dopamine D2 family of dopamine receptors
